The values that follow come from paper PMC8213057, “Targeting ALK2: An Open Science Approach to Developing Therapeutics for the Treatment of Diffuse Intrinsic Pontine Glioma” (Journal of Medicinal Chemistry, 2020).

Several values for one entry are separate records, joined by “and”; a condition that tells them apart may be missing. Equal values may be shown once.

The target in one experiment is DMPK2 (Homo sapiens, UniProt Q6DT37). The following applies: 1 μM; Run 1, Run 2.
In experiment [1] the target is T1, GRK6 (Homo sapiens, UniProt P43250). The settings on record: 1 μM; Run 1, Run 2.
T1 sequence (P43250 whole entry): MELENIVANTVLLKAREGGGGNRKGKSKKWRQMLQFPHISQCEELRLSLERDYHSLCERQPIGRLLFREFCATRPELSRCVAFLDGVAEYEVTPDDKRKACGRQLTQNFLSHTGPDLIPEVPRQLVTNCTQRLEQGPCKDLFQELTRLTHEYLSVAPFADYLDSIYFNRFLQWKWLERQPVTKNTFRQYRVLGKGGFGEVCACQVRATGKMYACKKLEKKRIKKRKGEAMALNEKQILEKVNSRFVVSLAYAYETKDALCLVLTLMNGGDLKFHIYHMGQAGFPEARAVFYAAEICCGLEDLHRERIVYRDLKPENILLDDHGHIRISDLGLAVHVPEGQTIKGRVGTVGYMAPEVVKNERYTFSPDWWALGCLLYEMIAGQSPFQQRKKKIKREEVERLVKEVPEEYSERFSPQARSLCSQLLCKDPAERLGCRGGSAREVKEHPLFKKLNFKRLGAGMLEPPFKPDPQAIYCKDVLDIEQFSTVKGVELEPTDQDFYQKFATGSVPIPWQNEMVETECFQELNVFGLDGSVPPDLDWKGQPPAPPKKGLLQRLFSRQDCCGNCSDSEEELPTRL
The target of a further experiment is HPK1/MAP4K1 (Homo sapiens, UniProt Q92918). The settings on record: 1 μM; Run 1, Run 2.
Another experiment deals with T2, MAPKAPK5/PRAK (Homo sapiens, UniProt Q8IW41).
T2 sequence (Q8IW41 1-473): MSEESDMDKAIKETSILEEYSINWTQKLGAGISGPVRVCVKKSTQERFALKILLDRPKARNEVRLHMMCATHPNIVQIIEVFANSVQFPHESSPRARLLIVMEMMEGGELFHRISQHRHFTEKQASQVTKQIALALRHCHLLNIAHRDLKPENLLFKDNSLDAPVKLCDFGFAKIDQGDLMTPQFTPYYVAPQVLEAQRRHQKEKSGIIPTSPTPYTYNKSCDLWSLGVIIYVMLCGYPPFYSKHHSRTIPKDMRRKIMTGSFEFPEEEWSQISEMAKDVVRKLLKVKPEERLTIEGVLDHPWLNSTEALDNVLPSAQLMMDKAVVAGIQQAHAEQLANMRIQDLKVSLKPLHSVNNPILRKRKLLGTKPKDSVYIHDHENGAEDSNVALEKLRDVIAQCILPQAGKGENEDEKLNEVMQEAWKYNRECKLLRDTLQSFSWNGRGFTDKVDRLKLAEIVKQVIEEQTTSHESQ
The following applies: 1 μM; Run 1, Run 2.

The target in the next experiment is T3, PDK1/PDPK1 (Homo sapiens, UniProt O15530).
T3 sequence (O15530 1-556): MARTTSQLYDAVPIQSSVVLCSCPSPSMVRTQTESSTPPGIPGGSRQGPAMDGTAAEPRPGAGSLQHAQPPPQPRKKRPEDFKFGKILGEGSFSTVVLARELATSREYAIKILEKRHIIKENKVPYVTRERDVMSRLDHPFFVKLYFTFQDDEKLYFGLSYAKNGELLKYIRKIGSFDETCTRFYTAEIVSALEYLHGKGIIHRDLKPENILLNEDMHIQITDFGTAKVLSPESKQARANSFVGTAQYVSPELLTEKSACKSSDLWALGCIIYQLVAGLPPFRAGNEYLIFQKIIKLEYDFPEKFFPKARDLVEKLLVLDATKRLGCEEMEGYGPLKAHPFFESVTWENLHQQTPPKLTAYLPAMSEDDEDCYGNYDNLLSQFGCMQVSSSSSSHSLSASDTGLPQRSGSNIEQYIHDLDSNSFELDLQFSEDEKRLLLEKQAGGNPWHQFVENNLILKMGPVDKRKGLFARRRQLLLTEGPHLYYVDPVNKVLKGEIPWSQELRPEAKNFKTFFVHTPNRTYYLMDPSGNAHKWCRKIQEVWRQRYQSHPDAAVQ
The settings on record: 1 μM; Run 1, Run 2.

The next experiment has as its target T4, BMX/ETK (Homo sapiens, UniProt P51813).
T4 sequence (P51813 1-675): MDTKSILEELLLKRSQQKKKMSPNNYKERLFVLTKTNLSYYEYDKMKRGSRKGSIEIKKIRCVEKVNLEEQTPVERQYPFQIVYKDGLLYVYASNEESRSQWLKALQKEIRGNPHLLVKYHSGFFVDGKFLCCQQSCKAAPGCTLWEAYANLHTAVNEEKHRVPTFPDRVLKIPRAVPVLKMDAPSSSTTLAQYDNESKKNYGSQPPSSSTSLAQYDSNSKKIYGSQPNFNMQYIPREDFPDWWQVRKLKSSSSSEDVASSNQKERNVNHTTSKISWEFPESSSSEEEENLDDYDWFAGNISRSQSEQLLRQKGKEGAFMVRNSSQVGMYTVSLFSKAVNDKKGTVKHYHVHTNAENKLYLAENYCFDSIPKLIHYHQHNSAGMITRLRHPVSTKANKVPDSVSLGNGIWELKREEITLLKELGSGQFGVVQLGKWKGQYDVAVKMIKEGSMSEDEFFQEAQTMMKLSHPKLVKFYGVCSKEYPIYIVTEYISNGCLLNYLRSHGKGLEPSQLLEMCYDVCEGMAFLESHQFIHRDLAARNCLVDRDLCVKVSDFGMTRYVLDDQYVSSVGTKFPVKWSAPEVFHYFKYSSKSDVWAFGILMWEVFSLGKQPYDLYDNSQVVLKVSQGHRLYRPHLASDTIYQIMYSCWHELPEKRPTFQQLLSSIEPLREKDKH
The experiment in a line: biochemical. The settings on record: read-out: % enzyme activity, 1 μM; Run 1, Run 2.

The next experiment has as its target CDK17/cyclin Y (PCTK2) (Homo sapiens, UniProt Q00537). The experiment in a line: biochemical. The following applies: read-out: % enzyme activity, 1 μM; Run 1, Run 2.
The next experiment deals with CDK2/cyclin A (Homo sapiens, UniProt P24941). The experiment in a line: biochemical. The following applies: read-out: % enzyme activity, 1 μM; Run 1, Run 2.
In another experiment the target is FRK/PTK5 (Homo sapiens, UniProt P42685). Nature of the experiment: biochemical. The following applies: read-out: % enzyme activity, 1 μM; Run 1, Run 2.
FRK/PTK5, sequence (P42685 whole entry): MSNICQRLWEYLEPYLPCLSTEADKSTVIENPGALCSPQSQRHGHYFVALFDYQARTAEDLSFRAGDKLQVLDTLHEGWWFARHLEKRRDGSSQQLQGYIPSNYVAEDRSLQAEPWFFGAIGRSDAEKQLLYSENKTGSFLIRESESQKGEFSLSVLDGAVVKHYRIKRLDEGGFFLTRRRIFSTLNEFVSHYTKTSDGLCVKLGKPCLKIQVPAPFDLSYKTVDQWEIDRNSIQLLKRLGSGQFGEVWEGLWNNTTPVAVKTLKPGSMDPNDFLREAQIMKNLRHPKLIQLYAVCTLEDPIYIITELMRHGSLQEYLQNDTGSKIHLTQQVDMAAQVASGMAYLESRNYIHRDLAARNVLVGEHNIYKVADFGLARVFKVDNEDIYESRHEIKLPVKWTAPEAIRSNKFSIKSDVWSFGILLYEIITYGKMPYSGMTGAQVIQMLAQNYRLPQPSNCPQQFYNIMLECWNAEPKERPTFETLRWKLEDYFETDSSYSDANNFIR
In experiment [2] the target is T1, GRK6. The experiment in a line: biochemical. The following applies: read-out: % enzyme activity, 1 μM; Run 1, Run 2.
The target in another experiment is LCK (Homo sapiens, UniProt P06239). Nature of the experiment: biochemical. The following applies: read-out: % enzyme activity, 1 μM; Run 1, Run 2.
LCK, sequence (P06239 whole entry): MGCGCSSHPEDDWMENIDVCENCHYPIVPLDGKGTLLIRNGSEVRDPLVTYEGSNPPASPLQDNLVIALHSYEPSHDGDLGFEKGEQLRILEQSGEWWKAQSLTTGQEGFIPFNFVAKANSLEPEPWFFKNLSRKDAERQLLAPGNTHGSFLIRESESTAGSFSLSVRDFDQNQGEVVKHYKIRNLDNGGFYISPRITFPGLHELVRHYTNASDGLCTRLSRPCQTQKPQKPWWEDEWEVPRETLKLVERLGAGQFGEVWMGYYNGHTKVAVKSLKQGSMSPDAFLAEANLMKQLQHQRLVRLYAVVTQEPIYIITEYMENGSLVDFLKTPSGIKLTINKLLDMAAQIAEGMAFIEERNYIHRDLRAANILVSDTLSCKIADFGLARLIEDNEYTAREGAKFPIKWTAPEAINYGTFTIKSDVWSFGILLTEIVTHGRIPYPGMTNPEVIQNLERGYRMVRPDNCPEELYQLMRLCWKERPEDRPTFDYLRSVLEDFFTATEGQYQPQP
The target in another experiment is MEK2 (Homo sapiens, UniProt P36507). The experiment in a line: biochemical. The settings on record: read-out: % enzyme activity, 1 μM; Run 1, Run 2.
MEK2, sequence (P36507 whole entry): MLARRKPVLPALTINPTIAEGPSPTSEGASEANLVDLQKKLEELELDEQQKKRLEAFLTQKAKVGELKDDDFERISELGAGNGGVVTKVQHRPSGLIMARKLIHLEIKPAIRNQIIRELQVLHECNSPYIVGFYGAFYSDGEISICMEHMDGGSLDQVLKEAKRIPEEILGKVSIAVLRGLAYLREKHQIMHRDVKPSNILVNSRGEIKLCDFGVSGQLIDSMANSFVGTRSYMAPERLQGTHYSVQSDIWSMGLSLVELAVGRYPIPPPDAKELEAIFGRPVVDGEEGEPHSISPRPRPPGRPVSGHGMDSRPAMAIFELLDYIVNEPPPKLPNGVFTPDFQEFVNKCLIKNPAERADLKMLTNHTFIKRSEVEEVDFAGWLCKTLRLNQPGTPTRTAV
In a further experiment the target is T5, MKK6 (Homo sapiens, UniProt P52564).
T5 sequence (P52564 1-334): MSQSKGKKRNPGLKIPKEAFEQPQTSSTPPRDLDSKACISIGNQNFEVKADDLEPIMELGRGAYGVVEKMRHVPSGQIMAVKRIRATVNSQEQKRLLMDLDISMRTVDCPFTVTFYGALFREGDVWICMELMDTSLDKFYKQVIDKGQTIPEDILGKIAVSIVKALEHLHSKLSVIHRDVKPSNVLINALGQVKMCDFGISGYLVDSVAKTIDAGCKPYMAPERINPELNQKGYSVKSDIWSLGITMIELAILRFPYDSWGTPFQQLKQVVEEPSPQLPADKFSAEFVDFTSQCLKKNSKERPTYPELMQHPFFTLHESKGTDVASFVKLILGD
The experiment in a line: biochemical. The following applies: read-out: % enzyme activity, 1 μM; Run 1, Run 2.

Another experiment deals with PYK2 (Homo sapiens, UniProt Q14289). Nature of the experiment: biochemical. The settings on record: read-out: % enzyme activity, 1 μM; Run 1, Run 2.
The next experiment addresses RSK3 (Homo sapiens, UniProt Q15349). Nature of the experiment: biochemical. The settings on record: read-out: % enzyme activity, 1 μM; Run 1, Run 2.

DMPK2, sequence (Q6DT37 whole entry): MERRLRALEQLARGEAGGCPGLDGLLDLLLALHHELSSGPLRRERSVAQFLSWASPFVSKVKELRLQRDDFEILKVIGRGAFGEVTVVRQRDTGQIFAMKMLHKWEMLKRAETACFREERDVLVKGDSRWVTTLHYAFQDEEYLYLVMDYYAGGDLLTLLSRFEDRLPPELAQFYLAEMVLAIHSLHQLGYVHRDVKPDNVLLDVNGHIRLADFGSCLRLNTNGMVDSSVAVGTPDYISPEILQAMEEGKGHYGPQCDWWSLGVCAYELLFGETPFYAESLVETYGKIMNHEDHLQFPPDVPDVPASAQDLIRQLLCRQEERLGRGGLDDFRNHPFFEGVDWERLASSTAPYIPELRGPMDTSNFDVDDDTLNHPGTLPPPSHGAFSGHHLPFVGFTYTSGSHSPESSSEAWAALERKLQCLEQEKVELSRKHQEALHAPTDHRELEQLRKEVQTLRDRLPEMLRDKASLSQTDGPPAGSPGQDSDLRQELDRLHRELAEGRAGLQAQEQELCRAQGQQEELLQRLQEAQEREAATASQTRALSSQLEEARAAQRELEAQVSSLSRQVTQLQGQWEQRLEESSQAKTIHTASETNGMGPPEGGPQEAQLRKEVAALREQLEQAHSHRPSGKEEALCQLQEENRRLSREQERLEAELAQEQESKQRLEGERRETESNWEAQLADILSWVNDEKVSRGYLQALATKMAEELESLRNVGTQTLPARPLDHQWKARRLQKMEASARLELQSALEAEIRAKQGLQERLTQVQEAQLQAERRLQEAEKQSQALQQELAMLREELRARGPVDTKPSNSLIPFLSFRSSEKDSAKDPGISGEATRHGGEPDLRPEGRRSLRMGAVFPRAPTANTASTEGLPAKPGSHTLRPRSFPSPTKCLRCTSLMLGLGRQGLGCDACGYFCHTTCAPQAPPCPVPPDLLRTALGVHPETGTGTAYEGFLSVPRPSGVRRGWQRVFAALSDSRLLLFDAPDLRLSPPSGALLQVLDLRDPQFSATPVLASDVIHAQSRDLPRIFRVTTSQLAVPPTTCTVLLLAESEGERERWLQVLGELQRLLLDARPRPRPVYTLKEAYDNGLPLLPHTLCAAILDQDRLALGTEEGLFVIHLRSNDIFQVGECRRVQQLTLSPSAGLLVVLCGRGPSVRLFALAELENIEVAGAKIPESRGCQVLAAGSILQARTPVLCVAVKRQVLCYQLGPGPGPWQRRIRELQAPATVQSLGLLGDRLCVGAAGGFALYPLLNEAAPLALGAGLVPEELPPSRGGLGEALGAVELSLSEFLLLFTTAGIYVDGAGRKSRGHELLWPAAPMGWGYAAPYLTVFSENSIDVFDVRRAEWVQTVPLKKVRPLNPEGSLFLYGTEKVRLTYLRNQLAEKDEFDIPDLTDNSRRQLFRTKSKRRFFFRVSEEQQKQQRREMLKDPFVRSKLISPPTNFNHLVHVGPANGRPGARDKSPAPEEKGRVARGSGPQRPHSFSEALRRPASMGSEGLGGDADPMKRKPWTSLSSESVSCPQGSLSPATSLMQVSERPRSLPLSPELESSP
RSK3, sequence (Q15349 whole entry): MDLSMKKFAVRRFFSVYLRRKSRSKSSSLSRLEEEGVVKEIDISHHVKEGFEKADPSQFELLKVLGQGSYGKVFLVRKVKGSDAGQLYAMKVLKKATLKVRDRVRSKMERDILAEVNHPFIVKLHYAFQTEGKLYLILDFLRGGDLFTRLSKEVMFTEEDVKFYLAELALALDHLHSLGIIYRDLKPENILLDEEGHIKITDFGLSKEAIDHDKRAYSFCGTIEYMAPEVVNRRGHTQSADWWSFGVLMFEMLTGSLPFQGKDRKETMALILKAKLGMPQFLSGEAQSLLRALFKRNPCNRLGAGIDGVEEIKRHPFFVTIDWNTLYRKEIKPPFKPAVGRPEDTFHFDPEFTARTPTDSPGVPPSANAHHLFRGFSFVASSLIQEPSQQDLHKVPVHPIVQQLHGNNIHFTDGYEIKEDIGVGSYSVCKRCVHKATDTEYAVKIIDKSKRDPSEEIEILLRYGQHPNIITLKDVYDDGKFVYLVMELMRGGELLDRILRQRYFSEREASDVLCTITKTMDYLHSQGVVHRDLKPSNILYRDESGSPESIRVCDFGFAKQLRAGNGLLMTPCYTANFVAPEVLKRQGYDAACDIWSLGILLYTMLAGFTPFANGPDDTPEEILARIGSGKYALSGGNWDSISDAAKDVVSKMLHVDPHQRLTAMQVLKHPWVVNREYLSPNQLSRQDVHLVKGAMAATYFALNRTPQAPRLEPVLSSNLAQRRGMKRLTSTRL

As for `COc1cc(-c2cncc(-c3ccc(N4CCN(C)CC4)cc3)c2C)cc(F)c1C(N)=O` [Compound 26a, 2-Fluoro-6-methoxy-4-(4-methyl-5-(4-(4-methylpiperazin-1-yl)phenyl)pyridin-3-yl)benzamide], the % enzyme activity at 1 μM with DYRK1/DYRK1A was 43.3% and 43.1%. Also, the “% enzyme activity” value on DMPK2 turned out to be 82.52%; on GRK6 [1], 107.43%; at HPK1/MAP4K1, 57.53%; on MAPKAPK5/PRAK, 90.60%; on PDK1/PDPK1, 91.49%. Moreover, the remaining activity at 1 µM at BMX/ETK came to 103%; at CDK17/cyclin Y (PCTK2), 96.1%; at CDK2/cyclin A it was 100%; at FRK/PTK5, 101%; at GRK6 [2], 109%; at LCK it was 93.2%. Besides, the remaining activity at 1 µM on MEK2 came to 87.1%; at MKK6 it was 84.4%; on PYK2, 85.9%; at RSK3, 92.2%.

With `COc1cc(-c2cncc(-c3ccc(N4C[C@@H](C)N(C)[C@@H](C)C4)cc3)c2C)cc(F)c1C(N)=O` [Compound 26c, 2-Fluoro-6-methoxy-4-(4-methyl-5-(4-((3R,5S)-3,4,5-trimethylpiperazin-1-yl)phenyl)pyridin-3-yl)benzamide], the % enzyme activity at 1 μM in the experiment on DYRK1/DYRK1A is 62.4% and 60%. For the same compound, the “% enzyme activity” value on DMPK2 worked out at 86.97%; on GRK6 [1], 94.12%; at HPK1/MAP4K1 it was 74.31%; on MAPKAPK5/PRAK it was 94.46%; on PDK1/PDPK1, 94.36%. For the same compound, the remaining activity at 1 µM on BMX/ETK was 102%; on CDK17/cyclin Y (PCTK2), 101%; at CDK2/cyclin A, 100%; at FRK/PTK5 it was 98.2%; at GRK6 [2] it was 97.1%; at LCK, 101%. Further, the remaining activity at 1 µM came to 94% on MEK2, 79.7% at MKK6, 88.6% at PYK2 and 101% on RSK3.
